# Peptide text beside a SMILES is read from it. * marks the point of attachment. Palmitoyl = CCCCCCCCCCCCCCCC(=O)*
# What was measured:
# [1] = tested on: E. coli ATCC 11775; experiment: CFU assay of antimicrobial activity; assay type: cell-based, Escherichia coli; settings: 10 mM NaP
# Outline: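 Early log-phase bacteria grown in BHI were exposed at 10^4–10^5 CFU/ml for 2 h at ambient temperature. Two-fold serial dilutions spanned 300 or 150 µg/mL–19 ng/mL (synthetic peptides) or 100 µg/mL–25 ng/mL (recombinant HRNR fragments), and colonies were counted after 16 h at 37 °C.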
# [2] = tested on: Candida albicans ATCC 90028; experiment: CO-ADD MIC, antifungal assay (CLSI); assay type: cell-based; settings: Yeast Nitrogen Base broth, 24 h 35 °C, by CO-ADD
# Experimental: (§1) Fungi strains were cultured for 3 days on Yeast Extract-Peptone Dextrose (YPD) agar at 30 °C. A yeast suspension of 1 × 10^6 to 5 × 10^6 cells/mL (as determined by OD530) was prepared from five colonies. These stock suspensions were diluted with Yeast Nitrogen Base (YNB) broth to a final concentration of 2.5 × 10^3 CFU/mL. […] Plates were covered and incubated at 35 °C for 24 h without shaking.
# [3] = tested on: Cryptococcus neoformans ATCC 208821; experiment: CO-ADD MIC, antifungal assay (CLSI); assay type: cell-based; settings: Yeast Nitrogen Base broth, 24 h 35 °C, by CO-ADD
# Experimental: as §1
# [4] = tested on: Acinetobacter baumannii ATCC 19606; experiment: CO-ADD MIC, broth microdilution (CLSI); assay type: cell-based; settings: Mueller–Hinton broth, 5 × 10^5 CFU/mL, 18 h 37 °C, by CO-ADD
# Text: (§2) They were defined as the lowest peptide
# (§3) Further details of the screening
# [5] = tested on: Pseudomonas aeruginosa ATCC 27853; experiment: CO-ADD MIC, broth microdilution (CLSI); assay type: cell-based; settings: Mueller–Hinton broth, 5 × 10^5 CFU/mL, 18 h 37 °C, by CO-ADD
# Text: as §2, §3
# [6] = tested on: Prevotella oralis ATCC 33321; experiment: CFU assay of antimicrobial activity; assay type: cell-based; settings: 10 mM NaP, pH 7.3, 1% TSB
# Experimental: All purified peptides and recombinant proteins were applied using a colony forming unit (CFU) assay in different media. Bacteria were grown to early log-phase in BHI, washed either with 10 mM Na-P, pH 7.4/1% TSB or pH 5.5/1% TSB, or pH 5.5 without TSB or BHI, and adjusted to a concentration of 10^4–10^5 colony forming units (CFU)/ml. For cell number control, 100 µl aliquots were diluted 1:10, 1:100 and 1:1000 and plated in duplicates on BHI agar plates. To 100 µl aliquots of the bacteria, suspended in the respective medium (10 mM Na-P buffer pH 7,0–7,4/ 1% (w/v) TSB; 10 mM Na-P buffer pH 5,5/ 1% (w/v) TSB; 10 mM Na-P buffer pH 7,0–7,4/ 1% (w/v) TSB pH 7,0–7,4/ 0,25% (w/v) glucose; […], respectively), 10 µl of a solution of the peptide or protein (two-fold dilutions, from 300 µg/ml or 150 µg/ml down to 19 ng/ml), dissolved in 0.01% (v/v) acetic acid, were added.
# (§4) Then bacteria were incubated for 2 h at ambient temperature, if not otherwise stated. 10 µl of 0.01% (v/v) acetic acid, added to 100 µl aliquots of the bacteria in the respective medium, served as negative control. From each test, 1:10 and 1:100 dilutions were generated and plated as duplicates of 100 µl aliquots on BHI agar plates. After 16 h incubation at 37 °C, CFU were counted using a colony counter (Bio Kobe, Japan) and expressed as mean of the duplicate estimation to achieve a complete dose-response curve. All experiments were performed at serial dilutions in a concentration range of 100 µg/mL −25 ng/mL for recombinant HRNR fragments and 300 or 150 µg/mL–19 ng/mL for synthetic peptides.
# [7] = tested on: Staphylococcus aureus ATCC 43300; settings: MRSA; CLSI, Mueller–Hinton broth, 5 × 10^5 CFU/mL, 18 h 37 °C, by CO-ADD
# [8] = tested on: Staphylococcus epidermidis ATCC 14990; experiment: CFU assay of antimicrobial activity; assay type: cell-based; settings: 10 mM NaP
# Experimental: (§5) All purified peptides and recombinant proteins were applied using a colony forming unit (CFU) assay in different media. Bacteria were grown to early log-phase in BHI, washed either with 10 mM Na-P, pH 7.4/1% TSB or pH 5.5/1% TSB, or pH 5.5 without TSB or BHI, and adjusted to a concentration of 10^4–10^5 colony forming units (CFU)/ml. For cell number control, 100 µl aliquots were diluted 1:10, 1:100 and 1:1000 and plated in duplicates on BHI agar plates. To 100 µl aliquots of the bacteria, suspended in the respective medium (10 mM Na-P buffer pH 7,0–7,4/ 1% (w/v) TSB; 10 mM Na-P buffer pH 5,5/ 1% (w/v) TSB; 10 mM Na-P buffer pH 7,0–7,4/ 1% (w/v) TSB pH 7,0–7,4/ 0,25% (w/v) glucose; 10 mM Na-P buffer pH 5,5/ 0,25% (w/v) glucose, respectively), 10 µl of a solution of the peptide or protein (two-fold dilutions, from 300 µg/ml or 150 µg/ml down to 19 ng/ml), dissolved in 0.01% (v/v) acetic acid, were added.
# as §4
# [9] = tested on: Propionibacterium acnes ATCC 6919; experiment: CFU assay of antimicrobial activity; assay type: cell-based; settings: 10 mM NaP
# Experimental: as §5, §4
# [10] = tested on: Lactobacillus crispatus DSM 20584; experiment: CFU assay of antimicrobial activity; assay type: cell-based; settings: 10 mM NaP, pH 7.3, 1% TSB
# Experimental: as §5, §4
# [11] = tested on: Salmonella typhimurium ATCC 13311; experiment: CFU assay of antimicrobial activity; assay type: cell-based; settings: 10 mM NaP, pH 7.3, 1% TSB
# Experimental: as §5, §4
smiles,measurement,setting,value
CCCCCCCCCCCCCCCC(=O)NCC(=O)N[C@@H](CCCNC(=N)N)C(=O)N[C@@H](CCCNC(=N)N)C(=O)NCC(=O)NCC(=O)N[C@@H](CCCNC(=N)N)C(=O)NCC(=O)NCC(=O)N[C@@H](CCCNC(=N)N)C(=O)NCC(=O)N[C@@H](CCCNC(=N)N)C(=O)NCC(=O)N[C@@H](CCCNC(=N)N)C(=O)O [Pal-GR13] (Palmitoyl-GRRGGRGGRGRGR-OH),LD90,"[1]; pH 5.5, 0.25% glucose",0.15 µg/mL
same,LD90,"[1]; pH 7.3, 1% TSB",1.18 µg/mL
same,Minimal inhibitory concentration (MIC),[2],4 µg/mL
same,Minimal inhibitory concentration (MIC),[3],0.25 µg/mL
same,Minimal inhibitory concentration (MIC),[4],2 µg/mL
same,Minimal inhibitory concentration (MIC),[5],8 µg/mL
same,LD90,[6],9.38 µg/mL
same,Minimal inhibitory concentration (MIC),[7],0.25 µg/mL
same,LD90,"[8]; pH 5.5, 0.25% glucose",9.38 µg/mL
same,LD90,"[8]; pH 7.3, 1% TSB",0.59 µg/mL
same,LD90,"[9]; pH 5.5, 0.25% glucose",0.3 µg/mL
same,LD90,"[9]; pH 7.3, 0.25% glucose",0.59 µg/mL
same,LD90,"[9]; pH 7.3, 1% TSB",1.18 µg/mL
same,LD90,[10],9.38 µg/mL
same,LD90,[11],2.35 µg/mL
